Experimental findings from patent US11472799B2, “Serine threonine kinase (AKT) degradation / disruption compounds and methods of use” (Icahn School of Medicine at Mount Sinai, priority 2018, dated 2022) are described below.

The assay has as its system AKT. Description: Western blot of AKT protein levels and downstream signaling in BT474 cells. The settings on record: Western blot (FIGS. 1, 3, 4). Format: cell-based, human. On the procedure:
PC-3, U87MG, HCC1143, MDA-MB-231, MDA-MB-468, BT474 and MCF-7 cell lines were purchased from ATCC. Cell lines were regularly tested in the lab for mycoplasma. All cells were cultured at 37° C. and 5% CO2. PC-3, U87MG, MDA-MB-231, MCF-7 and BT474 cells were cultured in 1×DMEM (Corning, 10-013-CV) with 10% fetal bovine serum (Atlanta Biologicals S11150) and 1× Penicillin/Streptomycin. HCC1143 cells were cultured in RPMI (Corning, 10-040-CV) medium with 10% fetal bovine serum (Atlanta Biologicals S11150) and 1× Penicillin/Streptomycin. Cells were split using 0.05% or 0.25% trypsin (Corning 25-051-Cl or 25-053-Cl, respectively) before they reached full confluence and media was changed every 3-4 days. Cells were treated with compounds individually at different concentrations for 24 hrs. Cells were treated with DMSO, VHL, or PML alone as controls.
Cells were lysed in 2× sample buffer (125 mM Tris-HCl at pH 6.8, 10% βME, 2% SDS, 20% glycerol, 0.05% Bromophenol Blue, 8 M urea). Protein lysates were loaded into 4-12% Bis-Tris gels and resolved by electrophoresis. Samples were then blotted on PVDF membrane (Millipore IPVH00010) using the wet transfer technique (Invitrogen). Membranes were blocked in 5% milk-TBST for 1 hour, washed in TBST for 10 min, and incubated in primary antibody in 5% milk-TBST or 5% BSA-TBST at 4° C. for 16 h. Membranes were rinsed (3×6 min) in TBST and incubated in horseradish peroxidase-conjugated secondary antibodies in 5% milk-TBST for 1 hour and rinsed again in TBST (3×6 min). Membranes were visualized using the chemiluminescence system (Thermo 34080, 37075) on autoradiography film (Denville E3018). Primary Antibodies: R-actin (Sigma A5316), p-AKT (Ser473 CST-9721), total AKT (CST-9272), p-S6 (Ser240/244, CST-5364), p-PRAS40 (Thr246, CST-2997). Secondary Antibodies: Mouse (Thermo 31432), Rabbit (Thermo 31460).
(Immunoblotting shows a protein as a band on a membrane.)
Consider `Cc1ncsc1-c1ccc(CNC(=O)[C@@H]2C[C@@H](O)CN2C(=O)[C@@H](NC(=O)CCCCCCCCCCCCC(=O)N2CCN(CC[C@H](NC(=O)C3(N)CCN(c4ncnc5[nH]ccc45)CC3)c3ccc(Cl)cc3)CC2)C(C)(C)C)cc1` [XF050-145, 4-amino-N-((S)-1-(4-chlorophenyl)-3-(4-(14-(((S)-1-((2S,4R)-4-hydroxy-2-((4-(4-methylthiazol-5-yl)benzyl)carbamoyl)pyrrolidin-1-yl)-3,3-dimethyl-1-oxobutan-2-yl)amino)-14-oxotetradecanoyl)piperazin-1-yl)propyl)-1-(7H-pyrrolo[2,3-d]pyrimidin-4-yl)piperidine-4-carboxamide], for which the “suppression of AKT protein level and AKT activity” value (“suppression” below) is “effective in suppressing both AKT protein level and AKT activity”.

In the case of `C[C@@H]1C[C@@H](O)c2ncnc(N3CCN(C(=O)[C@H](CNCCC(=O)NCCCCCCNc4cccc5c4C(=O)N(C4CCC(=O)NC4=O)C5=O)c4ccc(Cl)cc4)CC3)c21` (stereo partly drawn) [XF042-168, 3-(((S)-2-(4-chlorophenyl)-3-(4-((5R,7R)-7-hydroxy-5-methyl-6,7-dihydro-5H-cyclopenta[d]pyrimidin-4-yl)piperazin-1-yl)-3-oxopropyl)amino)-N-(6-((2-(2,6-dioxopiperidin-3-yl)-1,3-dioxoisoindolin-4-yl)amino)hexyl)propanamide], the “suppression” value was “effective in suppressing both AKT protein level and AKT activity”.

On to `Cc1ncsc1-c1ccc(CNC(=O)[C@@H]2C[C@@H](O)CN2C(=O)[C@@H](NC(=O)CCCCC(=O)N2CCN(CC[C@H](NC(=O)C3(N)CCN(c4ncnc5[nH]ccc45)CC3)c3ccc(Cl)cc3)CC2)C(C)(C)C)cc1` [XF050-16, 4-amino-N-((S)-1-(4-chlorophenyl)-3-(4-(6-(((S)-1-((2S,4R)-4-hydroxy-2-((4-(4-methylthiazol-5-yl)benzyl)carbamoyl)pyrrolidin-1-yl)-3,3-dimethyl-1-oxobutan-2-yl)amino)-6-oxohexanoyl)piperazin-1-yl)propyl)-1-(7H-pyrrolo[2,3-d]pyrimidin-4-yl)piperidine-4-carboxamide], for which the “suppression” value was “effective in suppressing both AKT protein level and AKT activity”.

For `NC1(C(=O)N[C@@H](CCN2CCN(C(=O)CCOCCOCCOCCOCCNc3cccc4c3C(=O)N(C3CCC(=O)NC3=O)C4=O)CC2)c2ccc(Cl)cc2)CCN(c2ncnc3[nH]ccc23)CC1` (stereo partly drawn) [XF050-32, 4-amino-N-((1S)-1-(4-chlorophenyl)-3-(4-(1-((2-(2,6-dioxopiperidin-3-yl)-1,3-dioxoisoindolin-4-yl)amino)-3,6,9,12-tetraoxapentadecan-15-oyl)piperazin-1-yl)propyl)-1-(7H-pyrrolo[2,3-d]pyrimidin-4-yl)piperidine-4-carboxamide], the “suppression” value is “effective in suppressing both AKT protein level and AKT activity”.

As for `C[C@@H]1C[C@@H](O)c2ncnc(N3CCN(C(=O)[C@H](CNCCC(=O)NCCCCCCCCOc4cccc5c4C(=O)N(C4CCC(=O)NC4=O)C5=O)c4ccc(Cl)cc4)CC3)c21` (stereo partly drawn) [XF050-133, 3-(((S)-2-(4-chlorophenyl)-3-(4-((5R,7R)-7-hydroxy-5-methyl-6,7-dihydro-5H-cyclopenta[d]pyrimidin-4-yl)piperazin-1-yl)-3-oxopropyl)amino)-N-(8-((2-(2,6-dioxopiperidin-3-yl)-1,3-dioxoisoindolin-4-yl)oxy)octyl)propanamide], the “suppression” value is “effective in suppressing both AKT protein level and AKT activity”.

As to `C[C@@H]1C[C@@H](O)c2ncnc(N3CCN(C(=O)[C@H](CNCCNC(=O)CCOCCOCCOCCOCCOCCNc4cccc5c4C(=O)N(C4CCC(=O)NC4=O)C5=O)c4ccc(Cl)cc4)CC3)c21` (stereo partly drawn) [XF048-4, N-(2-(((S)-2-(4-chlorophenyl)-3-(4-((5R,7R)-7-hydroxy-5-methyl-6,7-dihydro-5H-cyclopenta[d]pyrimidin-4-yl)piperazin-1-yl)-3-oxopropyl)amino)ethyl)-1-((2-(2,6-dioxopiperidin-3-yl)-1,3-dioxoisoindolin-4-yl)amino)-3,6,9,12,15-pentaoxaoetadecan-18-amide], the “suppression” value was “effective in suppressing both AKT protein level and AKT activity”.

On to `Cc1ncsc1-c1ccc(CNC(=O)[C@@H]2C[C@@H](O)CN2C(=O)[C@@H](NC(=O)CCCCCCC(=O)N2CCN(CC[C@H](NC(=O)C3(N)CCN(c4ncnc5[nH]ccc45)CC3)c3ccc(Cl)cc3)CC2)C(C)(C)C)cc1` [XF050-18, 4-amino-N-((S)-1-(4-chlorophenyl)-3-(4-(8-(((S)-1-((2S,4R)-4-hydroxy-2-((4-(4-methylthiazol-5-yl)benzyl)carbamoyl)pyrrolidin-1-yl)-3,3-dimethyl-1-oxobutan-2-yl)amino)-8-oxooctanoyl)piperazin-1-yl)propyl)-1-(7H-pyrrolo[2,3-d]pyrimidin-4-yl)piperidine-4-carboxamide], for which the “suppression” value is “effective in suppressing both AKT protein level and AKT activity”.

`Cc1ncsc1-c1ccc(CNC(=O)[C@@H]2C[C@@H](O)CN2C(=O)[C@@H](NC(=O)CCCCCCCCCCCC(=O)N2CCN(CC[C@H](NC(=O)C3(N)CCN(c4ncnc5[nH]ccc45)CC3)c3ccc(Cl)cc3)CC2)C(C)(C)C)cc1` [XF050-144, 4-amino-N-((S)-1-(4-chlorophenyl)-3-(4-(13-(((S)-1-((2S,4R)-4-hydroxy-2-((4-(4-methylthiazol-5-yl)benzyl)carbamoyl)pyrrolidin-1-yl)-3,3-dimethyl-1-oxobutan-2-yl)amino)-13-oxotridecanoyl)piperazin-1-yl)propyl)-1-(7H-pyrrolo[2,3-d]pyrimidin-4-yl)piperidine-4-carboxamide]: the “suppression” value was “effective in suppressing both AKT protein level and AKT activity”.

Regarding `C[C@@H]1C[C@@H](O)c2ncnc(N3CCN(C(=O)[C@H](CNCCC(=O)NCCCCCCCCCc4cccc5c4C(=O)N(C4CCC(=O)NC4=O)C5=O)c4ccc(Cl)cc4)CC3)c21` (stereo partly drawn) [XF056-93, 3-(((S)-2-(4-chlorophenyl)-3-(4-((5R,7R)-7-hydroxy-5-methyl-6,7-dihydro-5H-cyclopenta[d]pyrimidin-4-yl)piperazin-1-yl)-3-oxopropyl)amino)-N-(9-(2-(2,6-dioxopiperidin-3-yl)-1,3-dioxoisoindolin-4-yl)nonyl)propanamide], the “suppression” value is “effective in suppressing both AKT protein level and AKT activity”.

With `Cc1ncsc1-c1ccc([C@H](C)NC(=O)[C@@H]2C[C@@H](O)CN2C(=O)[C@@H](NC(=O)CCCCCCCCCC(=O)N2CCN(CC[C@H](NC(=O)C3(N)CCN(c4ncnc5[nH]ccc45)CC3)c3ccc(Cl)cc3)CC2)C(C)(C)C)cc1` [XF050-167, 4-amino-N-((S)-1-(4-chlorophenyl)-3-(4-(11-(((S)-1-((2S,4R)-4-hydroxy-2-(((S)-1-(4-(4-methylthiazol-5-yl)phenyl)ethyl)carbamoyl)pyrrolidin-1-yl)-3,3-dimethyl-1-oxobutan-2-yl)amino)-11-oxoundecanoyl)piperazin-1-yl)propyl)-1-(7H-pyrrolo[2,3-d]pyrimidin-4-yl)piperidine-4-carboxamide], the “suppression” value is “effective in suppressing both AKT protein level and AKT activity”.

For `NC1(C(=O)N[C@@H](CCN2CCN(C(=O)CCOCCOCCOCCOCCOCCOc3cccc4c3C(=O)N(C3CCC(=O)NC3=O)C4=O)CC2)c2ccc(Cl)cc2)CCN(c2ncnc3[nH]ccc23)CC1` (stereo partly drawn) [XF056-37, 4-amino-N-((1S)-1-(4-chlorophenyl)-3-(4-(1-((2-(2,6-dioxopiperidin-3-yl)-1,3-dioxoisoindolin-4-yl)oxy)-3,6,9,12,15-pentaoxaoctadecan-18-oyl)piperazin-1-yl)propyl)-1-(7H-pyrrolo[2,3-d]pyrimidin-4-yl)piperidine-4-carboxamide], the “suppression” value is “effective in suppressing both AKT protein level and AKT activity”.

As to `NC1(C(=O)N[C@@H](CCN2CCN(C(=O)CCOCCOCCOCCOCCOCCOCCNc3cccc4c3C(=O)N(C3CCC(=O)NC3=O)C4=O)CC2)c2ccc(Cl)cc2)CCN(c2ncnc3[nH]ccc23)CC1` (stereo partly drawn) [XF056-33, 4-amino-N-((1S)-1-(4-chlorophenyl)-3-(4-(1-((2-(2,6-dioxopiperidin-3-yl)-1,3-dioxoisoindolin-4-yl)amino)-3,6,9,12,15,18-hexaoxahenicosan-21-oyl)piperazin-1-yl)propyl)-1-(7H-pyrrolo[2,3-d]pyrimidin-4-yl)piperidine-4-carboxamide], the “suppression” value was “effective in suppressing both AKT protein level and AKT activity”.
